Reference: ChEMBL document CHEMBL4507274 (2021)

Experiments:
[1] = biological target: RAC-gamma serine/threonine-protein kinase (Homo sapiens) (UniProt Q9Y243); test: PKBγgamma(h) Upstate kinase activity assay; conditions: Compound concentration 10.0 uM
[2] = biological target: Serine/threonine-protein kinase Chk2 (Homo sapiens) (UniProt O96017); test: CHK2 (h) Upstate kinase activity assay; conditions: Compound concentration 10.0 uM
[3] = system: Saccharomyces cerevisiae; test: CK1 (y) Upstate kinase activity assay; conditions: Compound concentration 10.0 uM
[4] = system: SK-MEL-5; test: Melanoma SK-MEL-5 cell line MDS Pharma Services Proliferation Assay; format: functional, cell-based, Homo sapiens
[5] = biological target: T1, Aurora kinase A (Homo sapiens) (UniProt O14965); test: Aurora A (h) Upstate kinase activity assay; conditions: Compound concentration 10.0 uM
T1 sequence (whole entry): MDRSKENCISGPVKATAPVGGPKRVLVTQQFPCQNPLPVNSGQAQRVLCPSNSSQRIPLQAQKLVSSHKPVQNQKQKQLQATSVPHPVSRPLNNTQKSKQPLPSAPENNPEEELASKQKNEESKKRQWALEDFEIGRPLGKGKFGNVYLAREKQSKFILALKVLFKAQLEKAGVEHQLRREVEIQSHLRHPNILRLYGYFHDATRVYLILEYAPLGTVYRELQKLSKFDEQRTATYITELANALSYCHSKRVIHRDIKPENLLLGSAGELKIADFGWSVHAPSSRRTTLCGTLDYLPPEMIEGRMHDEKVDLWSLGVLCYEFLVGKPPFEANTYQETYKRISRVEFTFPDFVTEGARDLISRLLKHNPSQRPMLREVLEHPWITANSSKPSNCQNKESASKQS

[6] = biological target: T2, Protein kinase C iota type (Homo sapiens) (UniProt P41743); test: PKCiota (h) Upstate kinase activity assay; conditions: Compound concentration 10.0 uM
T2 sequence (whole entry): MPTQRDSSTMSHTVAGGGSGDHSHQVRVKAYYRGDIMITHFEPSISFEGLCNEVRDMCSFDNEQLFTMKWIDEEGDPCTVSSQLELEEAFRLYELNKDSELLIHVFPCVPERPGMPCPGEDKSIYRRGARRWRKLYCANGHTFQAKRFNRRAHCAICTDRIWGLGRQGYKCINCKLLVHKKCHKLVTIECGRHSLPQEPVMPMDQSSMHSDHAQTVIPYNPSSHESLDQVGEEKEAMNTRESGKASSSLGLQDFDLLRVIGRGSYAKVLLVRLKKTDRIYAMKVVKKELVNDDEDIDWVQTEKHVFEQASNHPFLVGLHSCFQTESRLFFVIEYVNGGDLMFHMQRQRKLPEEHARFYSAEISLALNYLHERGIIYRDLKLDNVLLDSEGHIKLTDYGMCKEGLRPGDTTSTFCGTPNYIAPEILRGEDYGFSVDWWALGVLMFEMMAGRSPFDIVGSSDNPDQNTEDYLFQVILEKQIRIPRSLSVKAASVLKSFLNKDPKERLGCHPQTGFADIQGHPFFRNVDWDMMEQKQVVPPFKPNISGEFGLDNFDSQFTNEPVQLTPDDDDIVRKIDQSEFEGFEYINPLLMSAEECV

[7] = biological target: Rho-associated protein kinase 2 (Rattus norvegicus) (UniProt Q62868); test: ROCK-2 (r) Upstate kinase activity assay; conditions: Compound concentration 10.0 uM
[8] = biological target: T3, Dual specificity mitogen-activated protein kinase kinase 7 (Homo sapiens) (UniProt O14733); test: MKK7βbeta(h) Upstate kinase activity assay; conditions: Compound concentration 10.0 uM
T3 sequence (whole entry): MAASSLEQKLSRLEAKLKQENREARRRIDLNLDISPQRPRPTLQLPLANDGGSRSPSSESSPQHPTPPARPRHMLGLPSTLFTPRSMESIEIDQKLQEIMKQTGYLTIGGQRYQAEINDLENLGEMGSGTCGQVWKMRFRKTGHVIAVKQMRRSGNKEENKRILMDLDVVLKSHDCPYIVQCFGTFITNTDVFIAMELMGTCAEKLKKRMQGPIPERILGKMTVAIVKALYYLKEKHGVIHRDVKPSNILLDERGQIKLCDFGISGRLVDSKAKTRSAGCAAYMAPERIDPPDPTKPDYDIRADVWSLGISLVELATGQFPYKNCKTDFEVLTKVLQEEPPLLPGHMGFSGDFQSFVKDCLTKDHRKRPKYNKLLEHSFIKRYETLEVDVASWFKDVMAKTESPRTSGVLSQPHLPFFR

[9] = biological target: T4, Calcium/calmodulin-dependent protein kinase type IV (Homo sapiens) (UniProt Q16566); test: CaMKIV (h) Upstate kinase activity assay; conditions: Compound concentration 10.0 uM
T4 sequence (whole entry): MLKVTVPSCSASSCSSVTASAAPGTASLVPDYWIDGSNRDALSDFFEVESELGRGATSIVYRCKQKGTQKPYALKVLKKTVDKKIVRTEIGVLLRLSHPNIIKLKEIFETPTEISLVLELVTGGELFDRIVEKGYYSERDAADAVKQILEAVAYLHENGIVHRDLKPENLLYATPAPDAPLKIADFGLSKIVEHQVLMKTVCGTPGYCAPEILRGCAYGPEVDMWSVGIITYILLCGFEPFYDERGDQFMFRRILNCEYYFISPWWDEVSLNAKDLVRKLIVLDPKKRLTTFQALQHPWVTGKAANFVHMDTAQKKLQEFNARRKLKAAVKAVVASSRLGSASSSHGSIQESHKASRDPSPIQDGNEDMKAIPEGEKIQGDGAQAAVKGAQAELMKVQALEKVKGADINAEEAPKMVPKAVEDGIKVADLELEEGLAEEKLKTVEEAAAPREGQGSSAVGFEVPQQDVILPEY

[10] = biological target: Angiopoietin-1 receptor (Homo sapiens) (UniProt Q02763); test: Tie2 (h) Upstate kinase activity assay; conditions: Compound concentration 10.0 uM
[11] = biological target: Tyrosine-protein kinase receptor UFO (Homo sapiens) (UniProt P30530); test: Axl (h) Upstate kinase activity assay; conditions: Compound concentration 10.0 uM
[12] = biological target: T5, Mitogen-activated protein kinase 12 (Homo sapiens) (UniProt P53778); test: SAPK3 (h) Upstate kinase activity assay; conditions: Compound concentration 10.0 uM
T5 sequence (whole entry): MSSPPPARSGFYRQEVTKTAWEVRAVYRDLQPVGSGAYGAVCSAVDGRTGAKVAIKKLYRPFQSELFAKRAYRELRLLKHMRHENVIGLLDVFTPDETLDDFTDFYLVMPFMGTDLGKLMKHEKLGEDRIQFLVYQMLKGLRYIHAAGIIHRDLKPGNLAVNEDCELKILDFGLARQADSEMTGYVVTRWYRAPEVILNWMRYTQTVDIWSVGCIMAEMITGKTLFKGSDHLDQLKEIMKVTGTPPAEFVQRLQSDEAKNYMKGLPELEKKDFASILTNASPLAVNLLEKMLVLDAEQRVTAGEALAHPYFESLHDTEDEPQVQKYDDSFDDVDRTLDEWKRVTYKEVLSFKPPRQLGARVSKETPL

[13] = biological target: 5-hydroxytryptamine receptor 2A (Homo sapiens) (UniProt P28223); conditions: Compound concentration 10.0 uM
5-hydroxytryptamine receptor 2A (Homo sapiens), sequence (P28223 whole entry): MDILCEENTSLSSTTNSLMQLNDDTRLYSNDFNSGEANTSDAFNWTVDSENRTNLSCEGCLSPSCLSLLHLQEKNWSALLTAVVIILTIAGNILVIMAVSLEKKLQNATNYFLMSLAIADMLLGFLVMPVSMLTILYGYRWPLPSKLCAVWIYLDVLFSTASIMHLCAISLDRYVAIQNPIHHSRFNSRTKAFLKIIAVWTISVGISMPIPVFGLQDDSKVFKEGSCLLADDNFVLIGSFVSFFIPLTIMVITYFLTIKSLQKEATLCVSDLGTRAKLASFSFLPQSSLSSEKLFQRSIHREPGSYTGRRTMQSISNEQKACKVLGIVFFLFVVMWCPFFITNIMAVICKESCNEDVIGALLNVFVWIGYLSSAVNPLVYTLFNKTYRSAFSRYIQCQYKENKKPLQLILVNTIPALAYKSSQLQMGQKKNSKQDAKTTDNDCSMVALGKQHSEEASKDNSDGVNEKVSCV

Rho-associated protein kinase 2 (Rattus norvegicus), sequence (Q62868 whole entry, looked up): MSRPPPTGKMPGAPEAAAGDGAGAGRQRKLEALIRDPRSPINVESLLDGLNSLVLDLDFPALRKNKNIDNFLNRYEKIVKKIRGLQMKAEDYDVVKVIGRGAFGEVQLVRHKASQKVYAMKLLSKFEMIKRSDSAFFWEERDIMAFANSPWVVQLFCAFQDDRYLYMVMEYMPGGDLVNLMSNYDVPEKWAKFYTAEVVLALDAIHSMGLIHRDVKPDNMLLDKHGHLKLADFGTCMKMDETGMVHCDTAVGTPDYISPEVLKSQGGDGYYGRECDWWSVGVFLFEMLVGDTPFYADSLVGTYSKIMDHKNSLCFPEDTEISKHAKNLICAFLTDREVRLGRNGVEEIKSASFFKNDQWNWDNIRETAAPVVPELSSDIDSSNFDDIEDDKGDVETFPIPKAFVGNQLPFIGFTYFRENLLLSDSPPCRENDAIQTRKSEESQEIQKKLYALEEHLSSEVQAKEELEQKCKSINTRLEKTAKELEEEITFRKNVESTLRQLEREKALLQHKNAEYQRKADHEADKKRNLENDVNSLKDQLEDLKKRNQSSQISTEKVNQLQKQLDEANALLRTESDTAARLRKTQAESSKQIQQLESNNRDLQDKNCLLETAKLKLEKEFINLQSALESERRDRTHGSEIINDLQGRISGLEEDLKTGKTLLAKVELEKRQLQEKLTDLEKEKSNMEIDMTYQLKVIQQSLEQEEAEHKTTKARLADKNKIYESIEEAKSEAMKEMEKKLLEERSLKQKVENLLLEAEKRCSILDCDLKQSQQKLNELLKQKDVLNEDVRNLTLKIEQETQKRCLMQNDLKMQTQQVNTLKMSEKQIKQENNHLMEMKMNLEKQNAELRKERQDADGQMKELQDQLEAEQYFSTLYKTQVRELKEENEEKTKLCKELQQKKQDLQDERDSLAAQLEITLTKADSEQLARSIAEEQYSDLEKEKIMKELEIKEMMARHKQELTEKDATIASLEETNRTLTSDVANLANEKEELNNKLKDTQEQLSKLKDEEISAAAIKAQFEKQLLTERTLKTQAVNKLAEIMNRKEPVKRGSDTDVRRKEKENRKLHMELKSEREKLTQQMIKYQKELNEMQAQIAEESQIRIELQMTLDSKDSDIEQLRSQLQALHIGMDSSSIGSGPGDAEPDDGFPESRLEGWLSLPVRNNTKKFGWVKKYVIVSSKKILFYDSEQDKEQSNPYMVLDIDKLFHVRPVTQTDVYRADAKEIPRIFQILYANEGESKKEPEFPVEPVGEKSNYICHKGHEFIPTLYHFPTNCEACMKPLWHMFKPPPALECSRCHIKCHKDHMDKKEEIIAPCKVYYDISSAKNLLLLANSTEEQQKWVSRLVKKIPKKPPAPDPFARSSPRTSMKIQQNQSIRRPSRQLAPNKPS
Tyrosine-protein kinase receptor UFO (Homo sapiens), sequence (P30530 whole entry): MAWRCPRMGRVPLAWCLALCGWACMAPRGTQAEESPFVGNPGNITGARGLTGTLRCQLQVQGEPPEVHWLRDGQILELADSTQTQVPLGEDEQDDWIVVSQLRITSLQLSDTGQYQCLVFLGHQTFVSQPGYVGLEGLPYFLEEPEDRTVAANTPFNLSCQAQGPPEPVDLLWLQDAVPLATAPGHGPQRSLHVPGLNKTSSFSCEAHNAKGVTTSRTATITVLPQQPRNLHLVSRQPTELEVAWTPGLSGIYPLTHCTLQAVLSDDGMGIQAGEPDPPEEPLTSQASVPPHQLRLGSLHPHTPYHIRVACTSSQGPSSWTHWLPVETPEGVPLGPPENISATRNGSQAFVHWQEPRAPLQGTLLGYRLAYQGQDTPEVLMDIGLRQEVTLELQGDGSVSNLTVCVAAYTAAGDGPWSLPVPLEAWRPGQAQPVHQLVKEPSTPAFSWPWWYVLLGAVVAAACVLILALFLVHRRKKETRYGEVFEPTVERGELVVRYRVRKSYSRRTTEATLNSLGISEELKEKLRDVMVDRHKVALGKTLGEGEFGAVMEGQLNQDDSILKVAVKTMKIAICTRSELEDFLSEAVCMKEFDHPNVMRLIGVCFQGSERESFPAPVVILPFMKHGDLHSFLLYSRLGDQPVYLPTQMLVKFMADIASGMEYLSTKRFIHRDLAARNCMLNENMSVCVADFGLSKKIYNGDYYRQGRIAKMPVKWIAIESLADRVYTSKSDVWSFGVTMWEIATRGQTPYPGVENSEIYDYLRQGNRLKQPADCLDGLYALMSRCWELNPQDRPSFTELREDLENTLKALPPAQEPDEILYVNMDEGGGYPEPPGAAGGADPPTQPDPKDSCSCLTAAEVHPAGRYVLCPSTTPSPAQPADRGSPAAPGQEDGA
Serine/threonine-protein kinase Chk2 (Homo sapiens), sequence (O96017 whole entry): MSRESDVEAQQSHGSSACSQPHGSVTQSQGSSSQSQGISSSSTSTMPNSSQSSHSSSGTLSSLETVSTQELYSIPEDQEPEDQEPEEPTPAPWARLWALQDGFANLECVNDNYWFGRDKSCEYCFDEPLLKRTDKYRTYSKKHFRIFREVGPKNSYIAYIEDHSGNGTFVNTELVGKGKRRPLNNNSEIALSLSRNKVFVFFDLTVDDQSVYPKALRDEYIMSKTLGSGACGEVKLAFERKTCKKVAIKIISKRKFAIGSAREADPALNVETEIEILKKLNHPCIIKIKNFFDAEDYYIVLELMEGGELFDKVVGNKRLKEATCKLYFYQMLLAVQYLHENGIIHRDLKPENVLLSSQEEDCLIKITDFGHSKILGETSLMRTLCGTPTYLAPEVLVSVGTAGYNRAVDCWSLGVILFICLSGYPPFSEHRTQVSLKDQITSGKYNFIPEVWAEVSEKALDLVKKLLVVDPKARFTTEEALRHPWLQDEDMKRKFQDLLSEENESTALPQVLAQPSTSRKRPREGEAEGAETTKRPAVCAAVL
Angiopoietin-1 receptor (Homo sapiens), sequence (Q02763 whole entry): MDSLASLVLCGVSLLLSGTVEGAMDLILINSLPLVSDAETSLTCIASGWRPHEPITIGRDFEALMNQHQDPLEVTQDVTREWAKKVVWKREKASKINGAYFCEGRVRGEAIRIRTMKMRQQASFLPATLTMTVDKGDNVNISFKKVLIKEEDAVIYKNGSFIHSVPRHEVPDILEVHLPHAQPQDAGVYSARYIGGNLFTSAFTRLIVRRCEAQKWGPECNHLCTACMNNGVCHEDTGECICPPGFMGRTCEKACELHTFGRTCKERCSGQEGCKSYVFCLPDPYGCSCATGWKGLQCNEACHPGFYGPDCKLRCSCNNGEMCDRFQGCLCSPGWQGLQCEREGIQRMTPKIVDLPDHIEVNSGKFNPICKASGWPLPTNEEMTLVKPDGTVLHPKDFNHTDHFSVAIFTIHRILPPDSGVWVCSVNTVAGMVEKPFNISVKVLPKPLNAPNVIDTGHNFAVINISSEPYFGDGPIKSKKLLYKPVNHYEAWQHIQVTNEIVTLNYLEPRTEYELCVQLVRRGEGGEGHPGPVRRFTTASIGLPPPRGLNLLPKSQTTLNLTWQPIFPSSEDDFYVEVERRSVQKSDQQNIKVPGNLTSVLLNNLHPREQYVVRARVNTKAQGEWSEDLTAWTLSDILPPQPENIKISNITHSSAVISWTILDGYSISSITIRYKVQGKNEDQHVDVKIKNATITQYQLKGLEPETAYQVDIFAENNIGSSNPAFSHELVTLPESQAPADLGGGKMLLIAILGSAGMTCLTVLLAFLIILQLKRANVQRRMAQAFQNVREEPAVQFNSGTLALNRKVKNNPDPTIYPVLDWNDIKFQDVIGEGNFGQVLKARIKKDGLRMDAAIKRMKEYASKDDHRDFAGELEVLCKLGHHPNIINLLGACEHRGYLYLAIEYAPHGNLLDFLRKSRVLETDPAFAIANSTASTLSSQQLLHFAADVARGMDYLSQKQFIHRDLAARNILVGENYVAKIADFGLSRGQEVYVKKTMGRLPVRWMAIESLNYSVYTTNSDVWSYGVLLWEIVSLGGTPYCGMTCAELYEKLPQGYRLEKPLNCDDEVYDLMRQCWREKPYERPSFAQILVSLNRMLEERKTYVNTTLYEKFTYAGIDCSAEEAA
RAC-gamma serine/threonine-protein kinase (Homo sapiens), sequence (Q9Y243 whole entry): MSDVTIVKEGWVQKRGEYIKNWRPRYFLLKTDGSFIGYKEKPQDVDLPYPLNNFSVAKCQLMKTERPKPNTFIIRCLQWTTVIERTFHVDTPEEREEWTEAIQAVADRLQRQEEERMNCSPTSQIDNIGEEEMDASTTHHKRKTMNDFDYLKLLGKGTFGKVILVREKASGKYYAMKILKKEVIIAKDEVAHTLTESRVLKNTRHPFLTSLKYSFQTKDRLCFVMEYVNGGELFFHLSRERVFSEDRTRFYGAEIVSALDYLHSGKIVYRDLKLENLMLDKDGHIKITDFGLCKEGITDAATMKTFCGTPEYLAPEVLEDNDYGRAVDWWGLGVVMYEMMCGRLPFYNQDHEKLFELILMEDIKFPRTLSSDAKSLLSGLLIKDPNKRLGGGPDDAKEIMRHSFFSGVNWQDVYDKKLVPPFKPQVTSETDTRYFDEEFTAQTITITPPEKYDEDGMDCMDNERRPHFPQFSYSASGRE

Row | SMILES | inhibition [1] | inhibition [2] | inhibition [3] | IC50 ([4]; Homo sapiens, SK-MEL-5) | TGI ([4]; Homo sapiens, SK-MEL-5) | CC50 ([4]; Homo sapiens, SK-MEL-5, read-out: LC50 (the source's name)) | Mean % growth (n = 2) for 100.0 µM probe concentration ([4]; ± SEM 1 % growth) | Mean % growth (n = 2) for 0.01 µM probe concentration ([4]; ± SEM 3 % growth) | Mean % growth (n = 2) for 1.0 µM probe concentration ([4]; ± SEM 3 % growth) | Mean % growth (n = 2) for 10.0 µM probe concentration ([4]; ± SEM 6 % growth) | Mean % growth (n = 2) for 0.1 µM probe concentration ([4]; ± SEM 8 % growth) | inhibition [5] | inhibition [6] | inhibition [7] | inhibition [8] | inhibition [9] | inhibition [10] | inhibition [11] | inhibition [12] | inhibition [13]
1 | Cc1c[nH]c2nccc(Oc3c(F)cc(Nc4cc(Cl)nc(N)n4)cc3F)c12 [BAY-549] | 87% | 64% | 44% | 16 µM | 50 µM | > 100 µM | -32% | 106% | 98% | 65% | 89% | 77% | 18% | 102% | 20% | -8% | 26% | 85% | 4% | –
2 | Cn1cc(Cl)c2c(Oc3c(F)cc(Nc4cc(Cl)nc(N)n4)cc3F)ccnc21 [BAY-4900] | – | – | – | – | – | – | – | – | – | – | – | – | – | – | – | – | – | – | – | -1.36%
